Measured values published in patent publication US20200268786A1, “RNA CONTAINING COMPOSITIONS AND METHODS OF THEIR USE” (Icahn School of Medicine at Mount Sinai, priority 2015, published 2020).

Test system: human monocyte derived DCs (moDCs)
Experiment: cytokine production of human moDCs stimulated with ncRNA (DOTAP liposomal transfection or none)
Type: cell-based
Conditions: DOTAP liposomal transfection, 2 ug/ml ncRNA
Description: PCR products were purified by PCR-Cleanup (Qiagen) and controlled by electrophoresis (0.8% Agarose gel). RNAs were generated by in vitro transcription using the mMESSAGE mMACHINE T7 ultra kit (Ambion) followed by a capping and short polyA reaction. RNAs were then purified using RNA-cleanup (Qiagen), quantified using a nanodrop, and checked by electrophoresis after denaturation at 65° C. for 10 minutes (1 5% Agarose gel).
MoDCs and imBM were both stimulated by i-ncRNA in the same way. The culturing of these cells is described below. Briefly, cells were plated in 96 flat well plates at 200,000 cells per well for primary cells (MoDCs) and 100,000 cells per well for lines (IMBM). i-ncRNA were transfected via liposomes formed using DOTAP (Roche Life Science) at a ratio of 1 μg DNA per 6 μl DOTAP diluted in HBS following the user-guide recommendations. The cells were stimulated using 2 μg/ml of purified i-ncRNA versus 10 μg/ml total RNA. To stimulate the TLR4 pathway, 100 ng/ml Ultrapure LPS (Invivogen) was used for TLR2: 500 ng/ml Pam2CSK4 (Invivogen) for TLR3: 2 μg/ml HMW PolyIC (Invivogen) TLR7/8: 1 μg/ml CLO97 (Invivogen) and 100 ng/ml R848 (Invivogen) TLR9: CpG B-ODN 1826 3 μM or STING CDN 5 μg/ml (Aduro).
Human moDCs: Human monocyte derived DCs were differentiated as previously described (Frleta et al., “HIV-1 Infection-Induced Apoptotic Microparticles Inhibit Human DCs via CD44,” J. Clinical Invest. 122:4685 (2012), which is hereby incorporated by reference in its entirety). Briefly, PBMCs were prepared by centrifugation over Ficoll-Hypaque gradients (BioWhittaker) from healthy donor buffy coats (New York Blood Center). Monocytes were isolated from PBMCs by adherence and then treated with 100 U/ml GM-CSF (Leukine Sanofi Oncology) and 300 U/ml IL-4 (RandD) in RPMI plus 5% human AB serum (Gemini Bio Products). Differentiation media was renewed on day 2 and day 4 of culture. Mature moDCs were harvested for use on days 5 to 7. For all experiments, harvested DCs were washed and equilibrated in serum-free X-Vivo 15 media (Lonza).

Row | Molecule | IL-6 production | IL-12 production | TNFalpha production
1 | CCOCc1nc2c(N)nc3ccccc3c2n1CC(C)(C)O [R848] | induced a cellular inflammatory response | induced a cellular inflammatory response | induced a cellular inflammatory response
2 | Poly-IC | induced a cellular inflammatory response | induced a cellular inflammatory response | induced a cellular inflammatory response
